This note sets out measurements from ChEMBL document CHEMBL1201862, “PubChem BioAssay data set” (2004).

Assay [1] in a line: bead-based luminescence quenchers, dual-tagged ARNT – biochemical, AlphaScreen, cherry-pick, artefact control for ARNT-TACC3 interaction inhibitor project, dose response (AID 651705).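 Also: AlphaScreen bead proximity signal that flags compounds interfering with the detection technology; potency reflects signal decrease which marks the compound as an assay artifact.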 The class given is functional. Background: In Alpha technology, singlet oxygen from a donor bead excites a nearby acceptor bead.
Assay [2] concerns the target T1, RNA-binding protein pos-1 (Caenorhabditis elegans, UniProt G5EF15).
T1 sequence (G5EF15 whole entry): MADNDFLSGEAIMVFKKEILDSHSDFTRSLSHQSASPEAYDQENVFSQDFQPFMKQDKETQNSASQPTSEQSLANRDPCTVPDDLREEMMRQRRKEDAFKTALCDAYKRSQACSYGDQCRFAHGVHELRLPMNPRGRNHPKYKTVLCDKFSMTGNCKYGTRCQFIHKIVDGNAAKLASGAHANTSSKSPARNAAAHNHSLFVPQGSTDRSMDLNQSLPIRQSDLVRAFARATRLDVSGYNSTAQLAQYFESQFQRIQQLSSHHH
The experiment in a line: disruptors of C. elegans POS-1 RNA interaction – biochemical, fluorescence polarization, dose response (AID 1964).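 Also: purified POS-1 fused to maltose binding protein made in E. coli; potency of compounds blocking POS-1 binding to fluorescent RNA.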 In general terms: In fluorescence polarisation assays a small probe gives low polarisation when free and higher when bound to something large.

The next assay addresses T2, Bcl-2-related protein A1 (Mus musculus, UniProt Q07440).
T2 sequence (Q07440 whole entry): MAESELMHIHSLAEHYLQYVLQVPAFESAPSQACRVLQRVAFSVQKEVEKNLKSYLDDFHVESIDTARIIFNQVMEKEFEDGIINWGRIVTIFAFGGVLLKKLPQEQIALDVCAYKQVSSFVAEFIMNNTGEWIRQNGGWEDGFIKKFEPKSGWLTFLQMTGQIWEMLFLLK
It is filed as functional.

The target of a further assay is T3, ORF 73 (Human herpesvirus 8, UniProt O40947).
T3 sequence (O40947 whole entry): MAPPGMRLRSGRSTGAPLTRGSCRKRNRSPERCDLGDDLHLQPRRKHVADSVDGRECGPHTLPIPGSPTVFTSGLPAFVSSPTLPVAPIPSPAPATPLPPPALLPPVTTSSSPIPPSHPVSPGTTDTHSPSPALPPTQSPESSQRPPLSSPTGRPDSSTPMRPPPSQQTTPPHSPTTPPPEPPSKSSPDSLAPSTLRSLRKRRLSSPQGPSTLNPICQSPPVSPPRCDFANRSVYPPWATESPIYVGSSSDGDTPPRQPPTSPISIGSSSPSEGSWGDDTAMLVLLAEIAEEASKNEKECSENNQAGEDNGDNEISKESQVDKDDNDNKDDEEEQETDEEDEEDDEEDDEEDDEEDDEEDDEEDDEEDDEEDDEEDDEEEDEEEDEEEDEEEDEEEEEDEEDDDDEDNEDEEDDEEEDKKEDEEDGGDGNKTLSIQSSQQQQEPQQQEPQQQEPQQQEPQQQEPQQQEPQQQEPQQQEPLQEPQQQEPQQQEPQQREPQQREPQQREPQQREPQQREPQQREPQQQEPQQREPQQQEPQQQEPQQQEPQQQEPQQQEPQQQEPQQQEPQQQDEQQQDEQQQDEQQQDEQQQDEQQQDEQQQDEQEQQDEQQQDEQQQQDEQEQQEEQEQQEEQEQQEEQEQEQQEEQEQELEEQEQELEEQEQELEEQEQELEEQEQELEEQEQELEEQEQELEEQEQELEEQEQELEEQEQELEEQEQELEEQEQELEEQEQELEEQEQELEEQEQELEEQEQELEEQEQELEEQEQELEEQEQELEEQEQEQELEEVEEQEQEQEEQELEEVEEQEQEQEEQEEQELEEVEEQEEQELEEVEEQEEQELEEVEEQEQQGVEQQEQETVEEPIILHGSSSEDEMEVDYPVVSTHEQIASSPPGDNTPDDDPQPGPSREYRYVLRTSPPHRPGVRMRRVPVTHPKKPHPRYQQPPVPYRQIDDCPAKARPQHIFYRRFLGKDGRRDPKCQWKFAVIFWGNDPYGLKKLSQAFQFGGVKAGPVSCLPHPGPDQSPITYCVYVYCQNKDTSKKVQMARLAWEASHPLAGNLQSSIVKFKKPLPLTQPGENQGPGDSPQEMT
In words: KSHV LANA DNA-binding disruption – biochemical, fluorescence polarization, cherry-picked samples, dose response (AID 504725).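 Also: fluorescence polarization of a labeled DNA duplex reporting LANA DNA binding; potency is for inhibitors that block LANA binding to the DNA.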 Set-up: species or system Human gammaherpesvirus 8.

The target in assay [3] is T4, Dual specificity protein phosphatase 6 (Rattus norvegicus, UniProt Q64346).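 Also: confirmatory in vitro dose-response testing of MKP-3 inhibition; recombinant His-tagged MKP-3 made in E. coli BL21 with OMFP substrate.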
T4 sequence (Q64346 whole entry): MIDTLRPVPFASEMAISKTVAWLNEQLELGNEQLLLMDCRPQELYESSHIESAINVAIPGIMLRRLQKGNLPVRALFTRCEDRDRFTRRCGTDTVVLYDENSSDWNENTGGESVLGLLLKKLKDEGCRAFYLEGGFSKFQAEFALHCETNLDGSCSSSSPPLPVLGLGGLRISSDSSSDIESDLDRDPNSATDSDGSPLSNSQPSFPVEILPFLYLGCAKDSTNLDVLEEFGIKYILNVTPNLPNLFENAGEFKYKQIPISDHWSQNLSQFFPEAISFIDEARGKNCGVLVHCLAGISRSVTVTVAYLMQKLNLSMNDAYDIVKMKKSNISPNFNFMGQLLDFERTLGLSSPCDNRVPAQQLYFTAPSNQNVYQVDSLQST
It is filed as functional.

For assay [4], the target named is Heat shock protein HSP 90-alpha (Homo sapiens, UniProt P07900). The experiment in a line: Luminescence-based dose response biochemical high throughput screening assay for inhibitors of the Heat Shock Protein 90 (HSP90). [Related pubchem assays: 1831 (Summary AID.), 1846 (Confirmation screen.), 1789 (Primary screen.)].
Assay [5] concerns the target Calcium/calmodulin-dependent protein kinase type II subunit gamma (Homo sapiens, UniProt Q13555). It is filed as functional.
The target in assay [6] is Testis-specific serine/threonine-protein kinase 2 (Homo sapiens, UniProt Q96PF2). The class given is functional.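 Also: part of the Navigating the Kinome panel, target entry STK22B.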
Sequence of Testis-specific serine/threonine-protein kinase 2 (Q96PF2 whole entry): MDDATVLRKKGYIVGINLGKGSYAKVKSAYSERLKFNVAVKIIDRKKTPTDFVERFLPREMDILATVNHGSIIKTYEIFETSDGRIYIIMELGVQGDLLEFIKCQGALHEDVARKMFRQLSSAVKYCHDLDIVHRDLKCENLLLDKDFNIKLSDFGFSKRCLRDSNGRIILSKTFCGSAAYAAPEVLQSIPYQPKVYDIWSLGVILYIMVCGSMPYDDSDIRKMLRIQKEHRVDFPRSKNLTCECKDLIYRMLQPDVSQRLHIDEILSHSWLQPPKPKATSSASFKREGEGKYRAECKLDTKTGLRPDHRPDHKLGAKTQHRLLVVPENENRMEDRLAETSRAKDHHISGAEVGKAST
For assay [7], the target named is Serine/threonine-protein kinase pim-3 (Homo sapiens, UniProt Q86V86). The class given is functional.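 Also: value obtained as one member of a broad kinase panel profiling effort.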
For assay [8], the target named is Protein kinase C iota type (Homo sapiens, UniProt P41743). It is filed as functional.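 Also: measured within a kinome-wide kinase panel, PRKCI as panel member.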
For assay [9], the target named is Tyrosine-protein kinase Lck (Homo sapiens, UniProt P06239). The class given is functional.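 Also: lck was assayed as one member of a kinase panel.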
The target of assay [10] is Serine/threonine-protein kinase PAK 4 (Homo sapiens, UniProt O96013). The class given is functional.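 Also: value obtained within a kinome profiling panel in which PAK4 was one of the panel members.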
Sequence of Serine/threonine-protein kinase PAK 4 (O96013 whole entry): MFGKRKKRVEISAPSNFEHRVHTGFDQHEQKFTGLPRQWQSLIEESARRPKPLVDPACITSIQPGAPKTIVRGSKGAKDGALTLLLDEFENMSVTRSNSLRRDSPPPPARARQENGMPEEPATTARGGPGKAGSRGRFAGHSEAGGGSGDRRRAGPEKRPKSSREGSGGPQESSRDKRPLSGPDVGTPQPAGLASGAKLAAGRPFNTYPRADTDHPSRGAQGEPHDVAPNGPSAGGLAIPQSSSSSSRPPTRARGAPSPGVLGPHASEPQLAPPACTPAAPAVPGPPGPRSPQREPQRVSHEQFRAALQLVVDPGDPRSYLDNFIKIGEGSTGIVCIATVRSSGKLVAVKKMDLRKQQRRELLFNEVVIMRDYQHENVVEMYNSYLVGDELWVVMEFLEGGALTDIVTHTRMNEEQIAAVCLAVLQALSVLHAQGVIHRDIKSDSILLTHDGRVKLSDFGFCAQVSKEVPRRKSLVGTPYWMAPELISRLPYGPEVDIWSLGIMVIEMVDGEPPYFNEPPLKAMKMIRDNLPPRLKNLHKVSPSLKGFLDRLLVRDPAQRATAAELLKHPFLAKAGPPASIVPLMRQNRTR
Assay [11] deals with Receptor-type tyrosine-protein kinase FLT3 (Homo sapiens, UniProt P36888). The class given is functional.
Sequence of Receptor-type tyrosine-protein kinase FLT3 (P36888 whole entry): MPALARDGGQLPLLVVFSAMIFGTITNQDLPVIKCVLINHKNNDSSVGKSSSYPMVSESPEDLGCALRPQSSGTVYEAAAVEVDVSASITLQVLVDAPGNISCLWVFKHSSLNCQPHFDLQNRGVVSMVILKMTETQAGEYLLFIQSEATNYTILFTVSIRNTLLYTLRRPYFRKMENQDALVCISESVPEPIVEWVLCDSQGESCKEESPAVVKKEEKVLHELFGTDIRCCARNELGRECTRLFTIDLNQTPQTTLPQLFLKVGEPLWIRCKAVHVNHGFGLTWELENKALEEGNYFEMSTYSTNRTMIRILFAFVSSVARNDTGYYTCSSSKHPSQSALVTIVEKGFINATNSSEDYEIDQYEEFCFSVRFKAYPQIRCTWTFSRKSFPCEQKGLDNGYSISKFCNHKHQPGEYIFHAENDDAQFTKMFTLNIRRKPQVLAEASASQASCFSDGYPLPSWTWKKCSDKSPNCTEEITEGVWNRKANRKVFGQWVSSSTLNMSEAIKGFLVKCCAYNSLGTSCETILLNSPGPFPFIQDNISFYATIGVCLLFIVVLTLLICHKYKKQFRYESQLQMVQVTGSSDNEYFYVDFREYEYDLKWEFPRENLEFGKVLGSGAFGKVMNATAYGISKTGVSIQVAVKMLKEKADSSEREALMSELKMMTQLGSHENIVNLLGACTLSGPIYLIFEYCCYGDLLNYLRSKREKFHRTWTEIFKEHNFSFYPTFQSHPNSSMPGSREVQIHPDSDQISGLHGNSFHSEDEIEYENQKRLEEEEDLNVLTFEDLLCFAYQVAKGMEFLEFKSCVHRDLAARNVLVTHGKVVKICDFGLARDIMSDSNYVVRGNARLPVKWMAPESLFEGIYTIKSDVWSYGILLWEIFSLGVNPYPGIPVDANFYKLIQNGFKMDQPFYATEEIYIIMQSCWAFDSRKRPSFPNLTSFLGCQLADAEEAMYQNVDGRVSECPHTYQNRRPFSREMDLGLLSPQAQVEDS
Assay [12] concerns the target Tyrosine-protein kinase ABL1 (Homo sapiens, UniProt P00519). It is filed as functional.
The next assay has as its target Focal adhesion kinase 1 (Homo sapiens, UniProt Q05397). It is filed as functional.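 Also: measured as one member of a kinome panel.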
The target of assay [13] is Glycogen synthase kinase-3 beta (Homo sapiens, UniProt P49841). The class given is functional.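 Also: value comes from a broad kinome profiling panel, with GSK3B as the panel member.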
Sequence of Glycogen synthase kinase-3 beta (P49841 whole entry): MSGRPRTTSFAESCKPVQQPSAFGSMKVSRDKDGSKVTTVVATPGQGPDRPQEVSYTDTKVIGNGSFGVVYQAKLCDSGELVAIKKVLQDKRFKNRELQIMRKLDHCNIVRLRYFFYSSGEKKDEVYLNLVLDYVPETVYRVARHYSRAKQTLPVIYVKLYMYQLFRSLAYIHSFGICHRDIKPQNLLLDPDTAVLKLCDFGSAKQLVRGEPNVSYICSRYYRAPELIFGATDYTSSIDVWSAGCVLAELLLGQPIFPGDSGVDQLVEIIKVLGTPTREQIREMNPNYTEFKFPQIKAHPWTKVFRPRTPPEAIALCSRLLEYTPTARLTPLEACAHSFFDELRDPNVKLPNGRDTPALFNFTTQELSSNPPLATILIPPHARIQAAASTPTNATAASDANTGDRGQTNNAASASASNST
Assay [14] addresses Platelet-derived growth factor receptor beta (Homo sapiens, UniProt P09619). The class given is functional.
Assay [15] addresses Intestinal-type alkaline phosphatase (Mus musculus, UniProt P24822). In words: PubChem AID 488785. It is filed as functional.

Molecules are shown by their SMILES. Calls of active or inactive are those of the source.

By AC50 is commonly meant the midpoint of the concentration-response curve, whichever way the signal moves. One may read the EC50 as the concentration giving half of the maximal effect. The IC50 is the concentration that inhibits the measured activity by half. For orientation: Ki means a dissociation constant, usually derived from enzyme kinetics or from competition with a known ligand.

Sequence of Tyrosine-protein kinase ABL1 (P00519 whole entry): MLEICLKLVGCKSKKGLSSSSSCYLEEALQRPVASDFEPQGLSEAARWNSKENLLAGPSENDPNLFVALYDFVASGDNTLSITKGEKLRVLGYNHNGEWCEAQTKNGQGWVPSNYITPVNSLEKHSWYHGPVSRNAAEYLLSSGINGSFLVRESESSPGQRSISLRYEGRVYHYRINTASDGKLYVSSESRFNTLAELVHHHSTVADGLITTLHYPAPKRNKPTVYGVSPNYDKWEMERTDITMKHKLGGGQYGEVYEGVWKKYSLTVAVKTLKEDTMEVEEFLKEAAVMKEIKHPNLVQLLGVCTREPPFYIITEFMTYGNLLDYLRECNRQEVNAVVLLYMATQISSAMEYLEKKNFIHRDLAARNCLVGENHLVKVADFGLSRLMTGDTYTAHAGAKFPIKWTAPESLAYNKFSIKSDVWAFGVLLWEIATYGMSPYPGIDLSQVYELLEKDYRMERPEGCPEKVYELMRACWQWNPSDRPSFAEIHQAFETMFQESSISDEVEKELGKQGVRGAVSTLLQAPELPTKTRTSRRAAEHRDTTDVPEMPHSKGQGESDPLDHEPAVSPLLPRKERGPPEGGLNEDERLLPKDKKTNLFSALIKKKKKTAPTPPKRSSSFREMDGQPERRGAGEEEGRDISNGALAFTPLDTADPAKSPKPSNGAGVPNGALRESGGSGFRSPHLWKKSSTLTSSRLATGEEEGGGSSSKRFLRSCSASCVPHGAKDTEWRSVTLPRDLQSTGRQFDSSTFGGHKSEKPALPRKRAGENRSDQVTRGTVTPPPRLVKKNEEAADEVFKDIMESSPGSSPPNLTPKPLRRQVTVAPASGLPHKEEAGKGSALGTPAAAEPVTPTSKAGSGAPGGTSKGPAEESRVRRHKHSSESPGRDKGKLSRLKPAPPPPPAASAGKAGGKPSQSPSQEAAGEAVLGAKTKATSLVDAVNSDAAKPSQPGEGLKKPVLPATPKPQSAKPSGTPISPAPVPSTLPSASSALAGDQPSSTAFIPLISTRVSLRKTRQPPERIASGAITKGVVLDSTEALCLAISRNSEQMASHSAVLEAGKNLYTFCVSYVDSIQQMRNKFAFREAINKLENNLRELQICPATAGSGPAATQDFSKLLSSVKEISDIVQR
Sequence of Focal adhesion kinase 1 (Q05397 whole entry): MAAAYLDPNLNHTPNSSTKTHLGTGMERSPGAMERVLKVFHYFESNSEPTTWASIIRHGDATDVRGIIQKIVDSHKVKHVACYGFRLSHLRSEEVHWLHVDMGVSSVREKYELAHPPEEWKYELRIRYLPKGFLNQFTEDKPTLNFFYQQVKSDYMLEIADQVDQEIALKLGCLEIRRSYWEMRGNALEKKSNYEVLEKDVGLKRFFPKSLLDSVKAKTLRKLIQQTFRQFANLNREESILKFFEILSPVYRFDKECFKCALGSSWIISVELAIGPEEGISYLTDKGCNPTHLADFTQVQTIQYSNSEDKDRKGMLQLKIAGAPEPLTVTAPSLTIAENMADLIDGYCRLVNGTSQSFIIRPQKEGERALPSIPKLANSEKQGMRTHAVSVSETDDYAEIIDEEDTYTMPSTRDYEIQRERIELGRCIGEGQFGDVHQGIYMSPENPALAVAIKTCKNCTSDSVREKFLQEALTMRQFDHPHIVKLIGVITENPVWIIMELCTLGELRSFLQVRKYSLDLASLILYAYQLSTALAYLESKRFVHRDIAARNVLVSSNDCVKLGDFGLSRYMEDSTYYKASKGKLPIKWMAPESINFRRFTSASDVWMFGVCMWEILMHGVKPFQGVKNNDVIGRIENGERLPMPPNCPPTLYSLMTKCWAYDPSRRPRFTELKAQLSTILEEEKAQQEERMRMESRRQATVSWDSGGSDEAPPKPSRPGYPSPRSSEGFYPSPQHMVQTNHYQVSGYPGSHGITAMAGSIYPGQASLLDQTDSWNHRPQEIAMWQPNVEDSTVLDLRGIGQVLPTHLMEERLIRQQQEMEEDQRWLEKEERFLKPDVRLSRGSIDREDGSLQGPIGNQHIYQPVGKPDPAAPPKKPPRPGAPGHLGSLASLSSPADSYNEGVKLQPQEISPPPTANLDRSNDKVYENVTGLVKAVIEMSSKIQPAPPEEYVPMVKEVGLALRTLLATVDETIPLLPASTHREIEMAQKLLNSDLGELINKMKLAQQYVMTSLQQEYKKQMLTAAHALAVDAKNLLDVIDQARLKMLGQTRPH

As for `Cc1cc([N+](=O)[O-])cc(/C=N\NC(=O)C2COc3ccccc3O2)c1O` (stereo not given), the AC50 in assay [1] is 93.6 µM (active).
Regarding `COc1cccc2c1NC(C(=O)O)C1CC=CC21` (stereo not given), the 50% effective concentration (EC50) in [2] is 19.5 µM (inconclusive). The values for the IC50 (on Bcl-2-related protein A1; in [3]) were 1.1 µM (active) and 13.1 µM (active), respectively. Further, the AC50 on ORF 73 was 35.8 µM (active).
In the case of `CCc1ccc(S(=O)(=O)/N=C2\C=C(Nc3ccc(O)cc3)C(=O)c3ccccc32)cc1`, the IC50 in [4] is 1.28 µM (active).
For the compound `Cc1ccc(F)c(NC(=O)Nc2ccc(-c3cccc4[nH]nc(N)c34)cc2)c1` [LINIFANIB], the Ki is 3.98 µM (active) in [5], > 1.58 µM (inactive) in assay [6], > 7.94 µM (inactive) in assay [7] and > 5.01 µM (inactive) in assay [8].
Take `COc1c(-c2nc3ccccc3[nH]2)c(O)cc2oc(C)cc(=O)c12`: the Ki was > 6.31 µM (inactive) in assay [9]; > 5.01 µM (inactive) in assay [10]; 0.398 µM (active) in [11]; 0.794 µM (active) in assay [12]; 2.51 µM (active) at Focal adhesion kinase 1; 0.398 µM (active) in assay [13].
For the compound `COC(=O)c1c(N)nc2ccccn12`, the values for the Ki (in assay [14]; in assay [12]; at Focal adhesion kinase 1) were > 79.4 µM (inactive), 100 µM (active) and 79.4 µM (active), respectively.
With `O=C1/C(=C\c2cccc(O)c2O)SC(=S)N1Cc1ccccc1`, the IC50 in [15] is 3.23 µM (active).
